These results are taken from US6528525B1, “Amidocarboxylic acid derivatives” (Sankyo Company, Limited, priority 1998, dated 2003).

The subject of one test is hyperglycemic male KK mice. Briefly: Action in depressing blood glucose (Method 1). The settings on record: Mus musculus, po, 72 h, compound admixed with powder feed at 0.01% (ca. 10 mg/kg/day) for three days, plasma glucose vs control group, read-out: Rate of hypoglycemic activity (%) (blood glucose depression rate). The test is classed as in vivo. The procedure:
Action in Depressing Blood Glucose (Method 1)
Each compound, admixed with powder feed F-2 (Funabashi Farm) was administered to hyperglycemic male KK mice each having a body weight of 40 g or more at a rate of 0.01% (ca. 10 mg/kg/day) for three days. Meanwhile, mice of a control group were fed with the powder feed only. Then, a blood sample was collected from the caudal vein of each mouse under no anesthesia and centrifuged. The blood glucose in the plasma thus obtained was determined using Glucoloader F (Product of A & T Co., Ltd.).
The blood glucose depression rate were estimated from the following equation:
Blood glucose depression rate (%)=[(Blood glucose in Control group−Blood glucose in administered group)/Blood glucose in Control group]×100
Take `Cc1ccc(OC(Cc2ccc(OCCNC(=O)c3ccc(-c4ccccn4)cc3)cc2)C(=O)O)cc1` (stereo not shown) [Example 115, 2-(4-Methylphenoxy)-3-[4-[2-(4-pyridine-2-ylbenzoylamino)ethoxy]phenyl]propionic acid]: the inhibition in vivo at 10 mg/kg/day is 66%.

`CC(C)(C)c1ccc(OC(Cc2ccc(OCCNC(=O)c3ccc(-c4ccccn4)cc3)cc2)C(=O)O)cc1` (stereo not shown) [Example 117, 2-(4-t-Butylphenoxy)-3-[4-[2-(4-pyridine-2-ylbenzoylamino)ethoxy]phenyl]propionic acid]: the inhibition in vivo at 10 mg/kg/day was found to be 70%.

For `O=C(NCCOc1ccc(CC(Oc2ccc(F)cc2)C(=O)O)cc1)c1ccc(-c2ccccn2)cc1` (stereo not shown) [Example 119, 2-(4-Fluorophenoxy)-3-[4-[2-(4-pyridine-2-ylbenzoylamino)ethoxy]phenyl]propionic acid], the inhibition in vivo at 10 mg/kg/day is 49%.

As to `O=C(NCCOc1ccc(CC(Oc2ccc(Cl)cc2)C(=O)O)cc1)c1ccc(-c2ccccn2)cc1` (stereo not shown) [Example 121, 2-(4-Chlorophenoxy)-3-[4-[2-(4-pyridine-2-ylbenzoylamino)ethoxy]phenyl]propionic acid], the inhibition in vivo at 10 mg/kg/day was 60%.

Regarding `O=C(NCCOc1ccc(CC(Oc2ccc(C(F)(F)F)cc2)C(=O)O)cc1)c1ccc(-c2ccccn2)cc1` (stereo not shown) [Example 123, 3-[4-[2-(4-Pyridine-2-ylbenzoylamino)ethoxy]phenyl]-2-(4-trifluoromethylphenoxy)propionic acid], the inhibition in vivo at 10 mg/kg/day came out at 43%.

In the case of `COc1ccc(OC(Cc2ccc(OCCNC(=O)c3ccc(-c4ccccn4)cc3)cc2)C(=O)O)cc1` (stereo not shown) [Example 125, 2-(4-Methoxyphenoxy)-3-[4-[2-(4-pyridine-2-ylbenzoylamino)ethoxy]phenyl]propionic acid], the inhibition in vivo at 10 mg/kg/day turned out to be 54%.

As for `O=C(NCCOc1ccc(CC(Oc2ccc(OC(F)(F)F)cc2)C(=O)O)cc1)c1ccc(-c2ccccn2)cc1` (stereo not shown) [Example 127, 3-[4-[2-(4-Pyridine-2-ylbenzoylamino)ethoxy]phenyl]-2-(4-trifluoromethoxyphenoxy)propionic acid], the inhibition in vivo at 10 mg/kg/day was determined as 56%.

`O=C(NCCOc1ccc(CC(Oc2cccc(F)c2)C(=O)O)cc1)c1ccc(-c2ccccn2)cc1` (stereo not shown) [Example 137, 2-(3-Fluorophenoxy)-3-[4-[2-(4-pyridine-2-ylbenzoylamino)ethoxy]phenyl]propionic acid]: the inhibition in vivo at 10 mg/kg/day came to 49%.

On to `O=C(NCCOc1ccc(CC(Oc2cc(F)cc(F)c2)C(=O)O)cc1)c1ccc(-c2ccccn2)cc1` (stereo not shown) [Example 139, 2-(3,5-Difluorophenoxy)-3-[4-[2-(4-pyridine-2-ylbenzoylamino)ethoxy]phenyl]propionic acid], for which the inhibition in vivo at 10 mg/kg/day came to 23%.

For the compound `O=C(NCCOc1ccc(CC(Oc2ccc(F)c(F)c2)C(=O)O)cc1)c1ccc(-c2ccccn2)cc1` (stereo not shown) [Example 141, 2-(3,4-Difluorophenoxy)-3-[4-[2-(4-pyridine-2-ylbenzoylamino)ethoxy]phenyl]propionic acid], the inhibition in vivo at 10 mg/kg/day was determined as 27%.

Consider `O=C(NCCOc1ccc(CC(Oc2cc(F)c(F)c(F)c2)C(=O)O)cc1)c1ccc(-c2ccccn2)cc1` (stereo not shown) [Example 143, 2-(3,4,5-Trifluorophenoxy)-3-[4-[2-(4-pyridine-2-ylbenzoylamino)ethoxy]phenyl]propionic acid], for which the inhibition in vivo at 10 mg/kg/day came to 43%.

In the case of `COC(=O)C(Cc1ccc(OCCNC(=O)c2ccc(-c3ccccn3)cc2)cc1)Sc1ccccc1` (stereo not shown) [Example 152, Methyl 2-phenylthio-3-[4-[2-(4-pyridine-2-ylbenzoylamino)ethoxy]phenyl]propionate], the inhibition in vivo at 10 mg/kg/day turned out to be 58%.

The test is the same for the next values; noted with them: compound admixed with powder feed at 0.01% (ca. 10 mg/kg/day) for three days, plasma glucose vs control group.
Consider `O=C(NCCOc1ccc(CC(Oc2c(F)c(F)c(F)c(F)c2F)C(=O)O)cc1)c1ccc(-c2ccccn2)cc1` (stereo not shown) [Example 145, 2-Pentafluorophenoxy-3-[4-[2-(4-pyridine-2-ylbenzoylamino)ethoxy]phenyl]propionic acid], for which the “Rate of hypoglycemic activity (%) (blood glucose depression rate)” value is 28%.
